Reference: patent US8058306B2, “Phenyl pyrrole aminoguanidine derivatives” (Action Pharma A/S, priority 2006, dated 2011)
Several values for one entry are separate records, joined by “and”; a condition that tells them apart may be missing. Equal values may be shown once. Entries after “also recorded” stand apart in the source; their conditions may differ. Read-outs that look alike come from different tables or passages of the source.

Experiment: Plasma kinetics in rat following intravenous and oral administration
Type: in vivo, Sprague Dawley rats
Conditions: male rats
Method: This study determined the intravenous pharmacokinetics and oral bioavailability of compound 1 of the invention (see FIG. 1A, structure no. 1), compound 2 of the invention (see FIG. 1D, structure no. 19) and compound 3 of the invention (see FIG. 1I, structure no. 53) following administration to Sprague Dawley rats at a dose level of 10 mg/kg.
Six groups of 3 male rats received either a single intravenous or single oral administration of compound 1, 2 or 3 of the invention at a dose level of 10 mg/kg. Blood samples were obtained at various times after dosing. Plasma samples were analysed for unchanged test item using a suitable LC-MS/MS method. Pharmacokinetic parameters were estimated from individual plasma concentrations.
Eighteen male rats each received either a single intravenous or a single oral administration of either compound 1, 2 or 3 at a dose level of 10 mg/kg. The formulation was orally administered to each animal by gastric gavage and intravenously administered to each animal via a tail vein. The dose was administered at a dose volume of 5 mL/kg. The formulations were administered to each animal according to the details in the following table:
Blood samples (ca 0.3 mL) were removed from the femoral vein of each animal into tubes containing lithium heparin as anticoagulant.
Blood samples were collected from 3 rats at the following times after dose administration: • 3, 6, 15, 45 min and 1.5, 2.5, 4, 6, 8, 24 h post dose. Oral Administration
Blood samples were collected from 3 rats at the following times after dose administration: • 5, 15, 45 min and 1.5, 2.5, 4, 6, 8, 24 h post dose. Processing of Blood Samples
Pharmacokinetic parameters of compound 1, 2 and 3 were derived by non-compartmental analysis using WinNonLin Pro version 5.0.1 (Pharsight 2005). The following parameters were derived, where appropriate, from the individual plasma concentration versus time profiles:
• F % The absolute oral bioavailability calculated as [AUC0-t (oral)*Dose(iv)/AUC0-t (iv)*Dose (oral)]*100 based on mean values derived after oral and intravenous administration Consideration was given to the estimation of λz and corresponding t1/2 values. Three or more points are required within the terminal phase for λz and t1/2 to be estimated. The following additional variables were tabulated to aid identification of potentially unreliable estimates of t1/2 and AUC:
Pharmacokinetic parameters were reported as geometric mean except Tmax which was reported as the median. Geometric coefficient of variation was calculated as: […]
Actual sampling times were used for all calculations of pharmacokinetic parameters. Plasma concentrations that were below the limit of quantification were taken as zero for the pharmacokinetic analysis.

[1] = oral 10 mg/kg, individual animals, acetate, 10 mg/kg

**Q.** What does the source list for N=C(N)NN=CC=Cc1cccn1-c1ccc(Cl)cc1 [Compound 1, [1-(4-chlorophenyl)-1H-pyrrol-2-yl-allylideneamino]guanidinium acetate]?
**A.** Cmax (male, Sprague Dawley, rat, plasma, po, 10 mg/kg, oral 10 mg/kg, Arithmetic Mean, read-out: Cmax): 104 ng/mL; Tmax (male, Sprague Dawley, rat, plasma, po, 10 mg/kg, oral 10 mg/kg, Arithmetic Mean, read-out: tmax): 6.65 h; AUC(0-t) (male, Sprague Dawley, rat, plasma, po, 10 mg/kg, oral 10 mg/kg, Geometric mean, read-out: AUC0-t): 1340 ng·h/mL; Cmax (male, Sprague Dawley, rat, plasma, po, 10 mg/kg, oral 10 mg/kg, Geometric mean, read-out: Cmax): 104 ng/mL; Tmax (male, Sprague Dawley, rat, plasma, po, 10 mg/kg, oral 10 mg/kg, Geometric mean, read-out: tmax): 6.34 h; AUC(0-t) (male, Sprague Dawley, rat, plasma, po, 10 mg/kg, oral 10 mg/kg, Median, read-out: AUC0-t): 1460 ng·h/mL; Cmax (male, Sprague Dawley, rat, plasma, po, 10 mg/kg, oral 10 mg/kg, Median, read-out: Cmax): 104 ng/mL; Tmax (male, Sprague Dawley, rat, plasma, po, 10 mg/kg, oral 10 mg/kg, Median, read-out: tmax): 7.97 h; AUC(0-inf) (male, Sprague Dawley, rat, plasma, po, 10 mg/kg, oral 10 mg/kg, individual animals): 1130 ng·h/mL; AUC(0-t) (male, Sprague Dawley, rat, plasma, po, 10 mg/kg, oral 10 mg/kg, individual animals, read-out: AUC0-t): 1500 ng·h/mL; Cmax (male, Sprague Dawley, rat, plasma, po, 10 mg/kg, oral 10 mg/kg, individual animals, read-out: Cmax): 106 ng/mL; MRT (male, Sprague Dawley, rat, plasma, po, 10 mg/kg, oral 10 mg/kg, individual animals, read-out: MRT): 7.86 h; half-life (male, Sprague Dawley, rat, plasma, po, 10 mg/kg, oral 10 mg/kg, individual animals, read-out: t1/2 (converted)): 4.61 h; Tmax (male, Sprague Dawley, rat, plasma, po, 10 mg/kg, oral 10 mg/kg, individual animals, read-out: tmax): 7.97 h; Tmax (male, Sprague Dawley, rat, plasma, po, 10 mg/kg, oral 10 mg/kg, from mean plasma concentrations, read-out: time post dose at which maximum plasma concentration was observed (tmax)): 8 h; half-life (male, Sprague Dawley, rat, plasma, po, 10 mg/kg, oral 10 mg/kg, read-out: apparent terminal half-life (converted)): 4.61 h; concentration at 0.08 h (male, Sprague Dawley, rat, plasma, po, 10 mg/kg, single oral 10 mg/kg, 0.08 h, individual animals, LLOQ 2.50 (Table X: * 5.0, ** 25, diluted samples), read-out: Sample Concentration in plasma): 2.66 ng/mL; concentration at 0.08 h (male, Sprague Dawley, rat, plasma, po, 10 mg/kg, single oral 10 mg/kg, 0.08 h, mean, read-out: Mean Concentration in plasma): 2.66 ng/mL; concentration at 0.25 h (male, Sprague Dawley, rat, plasma, po, 10 mg/kg, single oral 10 mg/kg, 0.25 h, individual animals, read-out: Sample Concentration in plasma): 6.53 ng/mL; concentration at 0.25 h (male, Sprague Dawley, rat, plasma, po, 10 mg/kg, single oral 10 mg/kg, 0.25 h, mean of 3, read-out: Mean Concentration in plasma): 7.29 ng/mL; concentration at 0.75 h (male, Sprague Dawley, rat, plasma, po, 10 mg/kg, single oral 10 mg/kg, 0.75 h, mean of 3, read-out: Mean Concentration in plasma): 17.3 ng/mL; concentration at 1.5 h (male, Sprague Dawley, rat, plasma, po, 10 mg/kg, single oral 10 mg/kg, 1.5 h, mean of 3, read-out: Mean Concentration in plasma): 39.1 ng/mL; concentration at 2.5 h (male, Sprague Dawley, rat, plasma, po, 10 mg/kg, single oral 10 mg/kg, 2.5 h, individual animals, read-out: Sample Concentration in plasma): 65.9 ng/mL; concentration at 2.5 h (male, Sprague Dawley, rat, plasma, po, 10 mg/kg, single oral 10 mg/kg, 2.5 h, mean of 3, read-out: Mean Concentration in plasma): 60.1 ng/mL; concentration at 4 h (male, Sprague Dawley, rat, plasma, po, 10 mg/kg, single oral 10 mg/kg, 4 h, individual animals, read-out: Sample Concentration in plasma): 102 ng/mL; concentration at 4 h (male, Sprague Dawley, rat, plasma, po, 10 mg/kg, single oral 10 mg/kg, 4 h, mean of 3, read-out: Mean Concentration in plasma): 90.3 ng/mL; concentration at 6 h (male, Sprague Dawley, rat, plasma, po, 10 mg/kg, single oral 10 mg/kg, 6 h, individual animals, read-out: Sample Concentration in plasma): 72.3 ng/mL; concentration at 6 h (male, Sprague Dawley, rat, plasma, po, 10 mg/kg, single oral 10 mg/kg, 6 h, mean of 3, read-out: Mean Concentration in plasma): 86.5 ng/mL; concentration at 8 h (male, Sprague Dawley, rat, plasma, po, 10 mg/kg, single oral 10 mg/kg, 8 h, individual animals, LLOQ 2.50, read-out: Sample Concentration in plasma): 68.8 ng/mL; concentration at 8 h (male, Sprague Dawley, rat, plasma, po, 10 mg/kg, single oral 10 mg/kg, 8 h, mean, LLOQ 2.50, read-out: Mean Concentration in plasma): 92.9 ng/mL; concentration at 24 h (male, Sprague Dawley, rat, plasma, po, 10 mg/kg, single oral 10 mg/kg, 24 h, individual animals, LLOQ 2.50, read-out: Sample Concentration in plasma): 5.35 ng/mL; concentration at 24 h (male, Sprague Dawley, rat, plasma, po, 10 mg/kg, single oral 10 mg/kg, 24 h, mean, LLOQ 2.50, read-out: Mean Concentration in plasma): 7.68 ng/mL; mean absorption time (MAT) (oral 10 mg/kg): 2.10 h; MAT (oral 10 mg/kg, individual animals): 2.10 h; AUC(0-t) [1]: 1094 ng·h/mL and 1460 ng·h/mL; Cmax [1]: 102 ng/mL; Tmax [1]: 4.00 h and 7.98 h; maximum observed plasma concentration, mean value (oral 10 mg/kg, at tmax): 92.9 ng/mL; Sample Concentration in plasma (single intravenous 10 mg/kg, 0.05 h, individual animals, acetate, 10 mg/kg): 1650 ng/mL and 3630 ng/mL and 1460 ng/mL; Sample Concentration in plasma (single intravenous 10 mg/kg, 0.1 h, individual animals, acetate, 10 mg/kg): 1220 ng/mL and 1200 ng/mL; Sample Concentration in plasma (single intravenous 10 mg/kg, 0.25 h, individual animals, acetate, 10 mg/kg): 830 ng/mL and 696 ng/mL; Sample Concentration in plasma (single intravenous 10 mg/kg, 0.75 h, individual animals, acetate, 10 mg/kg): 332 ng/mL and 402 ng/mL; Sample Concentration in plasma (single intravenous 10 mg/kg, 1.5 h, individual animals, acetate, 10 mg/kg): 236 ng/mL and 340 ng/mL; Sample Concentration in plasma (single intravenous 10 mg/kg, 2.5 h, individual animals, acetate, 10 mg/kg): 202 ng/mL and 259 ng/mL; Sample Concentration in plasma (single intravenous 10 mg/kg, 4 h, individual animals, acetate, 10 mg/kg): 208 ng/mL and 238 ng/mL; Sample Concentration in plasma (single intravenous 10 mg/kg, 6 h, individual animals, acetate, 10 mg/kg): 172 ng/mL and 168 ng/mL; Sample Concentration in plasma (single intravenous 10 mg/kg, 8 h, individual animals, LLOQ 2.50, acetate, 10 mg/kg): 151 ng/mL and 135 ng/mL and 5.04 ng/mL; Sample Concentration in plasma (single intravenous 10 mg/kg, 24 h, individual animals, LLOQ 2.50, acetate, 10 mg/kg): 13.2 ng/mL and 16.8 ng/mL and 30.7 ng/mL; adverse effects (single intravenous or oral administration, 10 mg/kg, acetate): No adverse effects; also recorded: No adverse affects; Sample Concentration in plasma (single oral 10 mg/kg, 0.08 h, individual animals, LLOQ 2.50 (Table X: * 5.0, ** 25, diluted samples), acetate, 10 mg/kg): *<LLOQ; also recorded: **<LLOQ; Sample Concentration in plasma (single oral 10 mg/kg, 0.25 h, individual animals, acetate, 10 mg/kg): 5.92 ng/mL and 9.43 ng/mL; Sample Concentration in plasma (single oral 10 mg/kg, 0.75 h, individual animals, acetate, 10 mg/kg): 11.8 ng/mL and 15.9 ng/mL and 24.1 ng/mL; Sample Concentration in plasma (single oral 10 mg/kg, 1.5 h, individual animals, acetate, 10 mg/kg): 20.5 ng/mL and 52.1 ng/mL and 44.6 ng/mL; Sample Concentration in plasma (single oral 10 mg/kg, 2.5 h, individual animals, acetate, 10 mg/kg): 57.1 ng/mL and 57.2 ng/mL; Sample Concentration in plasma (single oral 10 mg/kg, 4 h, individual animals, acetate, 10 mg/kg): 79.4 ng/mL and 89.4 ng/mL; Sample Concentration in plasma (single oral 10 mg/kg, 6 h, individual animals, acetate, 10 mg/kg): 98.4 ng/mL and 88.8 ng/mL; Sample Concentration in plasma (single oral 10 mg/kg, 8 h, individual animals, LLOQ 2.50, acetate, 10 mg/kg): 104 ng/mL and 106 ng/mL; Sample Concentration in plasma (single oral 10 mg/kg, 24 h, individual animals, LLOQ 2.50, acetate, 10 mg/kg): 7.50 ng/mL and 10.2 ng/mL
